Key:
IRF pathway = assay: Reporter gene expression assay for IRF axis in THP1-Dual cells (secreted Lucia luciferase); format: cell-based, human; settings: 20 hr stimulation, QUANTI-Luc, EC50 range, read-out: THP-IRF activity
Protocol: (§1) THP1-Dual™ cells (Invivogen) were derived from the human THP-1 monocyte cell line by stable integration of two inducible reporter constructs. As a result, THP1-Dual™ cells allow the simultaneous study of the NF-κB pathway, by monitoring the activity of secreted SEAP, and the IRF pathway, by assessing the activity of a secreted luciferase (Lucia). […] THP1-Dual™ cells were seeded in 384-well plates in growth medium and stimulated with novel compounds. After 20 hr of stimulation supernatant were removed and reporter proteins were readily measured in the cell culture supernatant using QUANTI-Blue™ (Invivogen), a SEAP detection reagent, and QUANTI-Luc™ (Invivogen), a luciferase detection reagent on a Spectramax i3X luminometer. EC50 value ranges for exemplary compounds tested in the above assay are given.

NF-κB pathway = assay: Reporter gene expression assay for NFκB axis in THP1-Dual cells (secreted SEAP); format: cell-based, human; settings: 20 hr stimulation, QUANTI-Blue SEAP, EC50 range, read-out: THP-NFKB activity
Protocol: as §1

WT/R232 STING protein = target: T1, WT/R232 STING protein (Homo sapiens, UniProt Q86WV6, H232R); assay: Luciferase reporter assay in HEK293T-hSTING-Luciferase cells (R232); format: cell-based; settings: 20 hr stimulation, EC50 range
T1 construct: host or cells: HEK293T
Method in brief: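 Clonal HEK293T cells stably expressing human STING R232 plus an ISRE/ISG54-driven secreted luciferase reporter, stimulated with compounds for 20 hr. Luciferase in supernatant read by luminescence; activity given as fold-induction over baseline.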

T1 sequence (Q86WV6 whole entry H232R): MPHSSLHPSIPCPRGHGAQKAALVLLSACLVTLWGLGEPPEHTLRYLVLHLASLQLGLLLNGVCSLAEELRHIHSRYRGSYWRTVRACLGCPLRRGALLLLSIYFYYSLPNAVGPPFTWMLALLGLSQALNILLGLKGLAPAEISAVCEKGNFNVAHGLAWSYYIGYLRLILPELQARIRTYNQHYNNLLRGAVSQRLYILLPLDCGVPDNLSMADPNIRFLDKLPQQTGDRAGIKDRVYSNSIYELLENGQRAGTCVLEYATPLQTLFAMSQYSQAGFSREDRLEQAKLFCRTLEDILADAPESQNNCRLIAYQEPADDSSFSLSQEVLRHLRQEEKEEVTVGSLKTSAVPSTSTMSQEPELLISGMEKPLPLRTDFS

Row | Compound | EC50 (IRF pathway) [µM] | EC50 (NF-κB pathway) [µM] | EC50 (WT/R232 STING protein) [µM]
1 | CC1(C#N)C(=O)N(Cc2cc(F)cc(F)c2)c2cc(C(=O)NCc3c(F)cc(F)cc3F)ccc21 (stereo not shown) [Example 163, 3-cyano-1-(3,5-difluorobenzyl)-3-methyl-2-oxo-N-(2,4,6-trifluorobenzyl)indoline-6-carboxamide] | 1 to 10 | 1 to 10 | –
2 | CC1(C#N)C(=O)N(Cc2cc(F)cc(F)c2)c2cc(C(=O)NCc3c(F)cc(F)cc3F)ccc21 (stereo not shown) [Example 167, 3-cyano-1-(3,5-difluorobenzyl)-3-methyl-2-oxo-N-(2,4,6-trifluorobenzyl)indoline-6-carboxamide] | 1 to 10 | 1 to 10 | –
3 | CC1(C#N)C(=O)N(Cc2cc(F)cc(F)c2)c2cc(C(=O)NCc3c(F)cc(F)cc3F)ccc21 (stereo not shown) [Example 168, 3-cyano-1-(3,5-difluorobenzyl)-3-methyl-2-oxo-N-(2,4,6-trifluorobenzyl)indoline-6-carboxamide] | > 10 | > 10 | –
4 | CC1(CCN)C(=O)N(Cc2cc(F)cc(F)c2)c2cc(C(=O)NCc3c(F)cc(F)cc3F)ccc21 (stereo not shown) [Example 173, 3-(2-aminoethyl)-1-(3,5-difluorobenzyl)-3-methyl-2-oxo-N-(2,4,6-trifluorobenzyl)indoline-6-carboxamide] | – | – | > 10
5 | CC1(CCO)C(=O)N(Cc2cc(F)cc(F)c2)c2cc(C(=O)NCc3ccc(F)cc3F)ccc21 (stereo not shown) [Example 174, N-(2,4-difluorobenzyl)-1-(3,5-difluorobenzyl)-3-(2-hydroxyethyl)-3-methyl-2-oxoindoline-6-carboxamide] | – | – | > 10
6 | CC1(CO)C(=O)N(Cc2cc(F)cc(F)c2)c2cc(C(=O)NCc3ccc(F)cc3F)ccc21 (stereo not shown) [Example 176, N-(2,4-difluorobenzyl)-1-(3,5-difluorobenzyl)-3-(hydroxymethyl)-3-methyl-2-oxoindoline-6-carboxamide] | – | – | > 10
7 | CC1(CC#N)C(=O)N(Cc2cc(F)cc(F)c2)c2cc(C(=O)NCc3c(F)cc(F)cc3F)ccc21 (stereo not shown) [Example 178, 3-(cyanomethyl)-1-(3,5-difluorobenzyl)-3-methyl-2-oxo-N-(2,4,6-trifluorobenzyl)indoline-6-carboxamide] | – | – | 1 to 10
8 | CC1(C)C(=O)N(Cc2cc(F)cc(F)c2)c2nc(C(=O)NCc3c(F)cc(F)cc3F)ccc21 [Example 180, 1-(3,5-difluorobenzyl)-3,3-dimethyl-2-oxo-N-(2,4,6-trifluorobenzyl)-2,3-dihydro-1H-pyrrolo[2,3-b]pyridine-6-carboxamide] | – | – | 1 to 10
9 | CC1(C)C(=O)N(Cc2ccc(F)cc2)c2nc(C(=O)NCc3c(F)cc(F)cc3F)ccc21 [Example 181, 1-(4-fluorobenzyl)-3,3-dimethyl-2-oxo-N-(2,4,6-trifluorobenzyl)-2,3-dihydro-1H-pyrrolo[2,3-b]pyridine-6-carboxamide] | – | – | > 10
10 | CC1(C)C(=O)N(Cc2ccncc2)c2nc(C(=O)NCc3c(F)cc(F)cc3F)ccc21 [Example 184, 3,3-dimethyl-2-oxo-1-(pyridin-4-ylmethyl)-N-(2,4,6-trifluorobenzyl)-2,3-dihydro-1H-pyrrolo[2,3-b]pyridine-6-carboxamide] | – | – | 1 to 10
11 | CC1(C)C(=O)N(Cc2cc(F)cc(F)c2)c2cc(C(=O)NCc3c(F)cc(F)cc3F)ncc21 [Example 186, 1-(3,5-difluorobenzyl)-3,3-dimethyl-2-oxo-N-(2,4,6-trifluorobenzyl)-2,3-dihydro-1H-pyrrolo[3,2-c]pyridine-6-carboxamide] | – | – | > 10
12 | CC1(C)C(=O)N(Cc2cc(F)cc(F)c2)c2nc(C(=O)NCCc3c(F)cc(F)cc3F)ccc21 [Example 190, 1-(3,5-difluorobenzyl)-3,3-dimethyl-2-oxo-N-(2,4,6-trifluorophenethyl)-2,3-dihydro-1H-pyrrolo[2,3-b]pyridine-6-carboxamide] | – | – | > 10
13 | CC1(C)C(=O)N(Cc2cc(F)cc(F)c2)c2nc(C(=O)NCc3ccc(C#N)cc3)ccc21 [Example 192, N-(4-cyanobenzyl)-1-(3,5-difluorobenzyl)-3,3-dimethyl-2-oxo-2,3-dihydro-1H-pyrrolo[2,3-b]pyridine-6-carboxamide] | – | – | 1 to 10
14 | O=C(NCc1ccco1)c1ccc2oc(=O)n(Cc3ccccc3F)c2c1 [Example 200, 3-(2-Fluorobenzyl)-N-(furan-2-ylmethyl)-2-oxo-2,3-dihydrobenzo[d]oxazole-5-carboxamide] | – | – | > 10
15 | Cn1c(=O)n(Cc2ccccc2Cl)c2cc(C(=O)NCc3ccco3)ccc21 [Example 202, 3-(2-chlorobenzyl)-N-(furan-2-ylmethyl)-1-methyl-2-oxo-2,3-dihydro-1H-benzo[d]imidazole-5-carboxamide] | – | – | > 10

Now from value to compound:

Row | EC50 (IRF pathway) [µM] | EC50 (NF-κB pathway) [µM] | EC50 (WT/R232 STING protein) [µM] | Compound
16 | – | – | > 10 | CC1(CCCO)C(=O)N(Cc2c(F)cccc2Cl)c2cc(C(=O)NCc3c(F)cc(F)cc3F)ccc21 (stereo not shown) [Example 177, 1-(2-chloro-6-fluorobenzyl)-3-(3-hydroxypropyl)-3-methyl-2-oxo-N-(2,4,6-trifluorobenzyl)indoline-6-carboxamide]
17 | – | – | 1 to 10 | CC1(C)C(=O)N(Cc2cc(F)cc(F)c2)c2cc(C(=O)NCc3c(F)cc(F)cc3F)cnc21 [Example 179, 1-(3,5-Difluorobenzyl)-3,3-dimethyl-2-oxo-N-(2,4,6-trifluorobenzyl)-2,3-dihydro-1H-pyrrolo[3,2-b]pyridine-6-carboxamide]
18 | – | – | 1 to 10 | Cc1cc(CN2C(=O)C(C)(C)c3ccc(C(=O)NCc4cc5ccccc5o4)nc32)ccn1 [Example 183, N-(benzofuran-2-ylmethyl)-3,3-dimethyl-1-((2-methylpyridin-4-yl)methyl)-2-oxo-2,3-dihydro-1H-pyrrolo[2,3-b]pyridine-6-carboxamide]
19 | – | – | 1 to 10 | Cc1cc(CN2C(=O)C(C)(C)c3ccc(C(=O)NCc4c(F)cc(F)cc4F)nc32)ccn1 [Example 185, 3,3-dimethyl-1-((2-methylpyridin-4-yl)methyl)-2-oxo-N-(2,4,6-trifluorobenzyl)-2,3-dihydro-1H-pyrrolo[2,3-b]pyridine-6-carboxamide]
20 | – | – | > 10 | CC1(C)C(=O)N(Cc2cc(F)cc(F)c2)c2nc(C(=O)NCc3cc4ccncc4o3)ccc21 [Example 187, 1-(3,5-difluorobenzyl)-N-(furo[2,3-c]pyridin-2-ylmethyl)-3,3-dimethyl-2-oxo-2,3-dihydro-1H-pyrrolo[2,3-b]pyridine-6-carboxamide]
21 | – | – | > 10 | CC1(C)C(=O)N(Cc2cc(F)cc(F)c2)c2cc(C(=O)NCc3cc4ccccc4o3)cnc21 [Example 193, N-(benzofuran-2-ylmethyl)-1-(3,5-difluorobenzyl)-3,3-dimethyl-2-oxo-2,3-dihydro-1H-pyrrolo[3,2-b]pyridine-6-carboxamide]
22 | – | – | 1 to 10 | Cc1cccc(F)c1CN1C(=O)C(C)(C)c2ccc(C(=O)NCc3ccc(F)cc3)nc21 [Example 194, 1-(2-fluoro-6-methylbenzyl)-N-(4-fluorobenzyl)-3,3-dimethyl-2-oxo-2,3-dihydro-1H-pyrrolo[2,3-b]pyridine-6-carboxamide]
23 | – | – | 1 to 10 | Cc1ccc(CNC(=O)c2ccc3c(n2)N(Cc2c(C)cccc2F)C(=O)C3(C)C)o1 [Example 195, 1-(2-fluoro-6-methylbenzyl)-3,3-dimethyl-N-((5-methylfuran-2-yl)methyl)-2-oxo-2,3-dihydro-1H-pyrrolo[2,3-b]pyridine-6-carboxamide]
24 | – | – | > 10 | Cc1ccc(CNC(=O)c2cnc3c(c2)N(Cc2c(C)cccc2F)C(=O)C3(C)C)o1 [Example 196, 1-(2-fluoro-6-methylbenzyl)-3,3-dimethyl-N-((5-methylfuran-2-yl)methyl)-2-oxo-2,3-dihydro-1H-pyrrolo[3,2-b]pyridine-6-carboxamide]
25 | – | – | > 10 | Cc1cccc(F)c1CN1C(=O)C(C)(C)c2ncc(C(=O)NCc3ccc(F)cc3)cc21 [Example 197, 1-(2-fluoro-6-methylbenzyl)-N-(4-fluorobenzyl)-3,3-dimethyl-2-oxo-2,3-dihydro-1H-pyrrolo[3,2-b]pyridine-6-carboxamide]
26 | – | – | 1 to 10 | CC1(C)C(=O)N(Cc2cc(F)cc(F)c2)c2cc(C(=O)NCc3ccc(F)cc3)cnc21 [Example 198, 1-(3,5-difluorobenzyl)-N-(4-fluorobenzyl)-3,3-dimethyl-2-oxo-2,3-dihydro-1H-pyrrolo[3,2-b]pyridine-6-carboxamide]
27 | – | – | 1 to 10 | CC1(C)C(=O)N(Cc2cc(F)cc(F)c2)c2cc(C(=O)NCc3ccc(F)cc3F)cnc21 [Example 199, N-(2,4-difluorobenzyl)-1-(3,5-difluorobenzyl)-3,3-dimethyl-2-oxo-2,3-dihydro-1H-pyrrolo[3,2-b]pyridine-6-carboxamide]
28 | – | – | > 10 | O=C(NCc1ccco1)c1ccc2sc(=O)n(Cc3c(F)cccc3Cl)c2c1 [Example 201, 3-(2-chloro-6-fluorobenzyl)-N-(furan-2-ylmethyl)-2-oxo-2,3-dihydrobenzo[d]thiazole-5-carboxamide]
